Reference: patent US20210363254A1, “PHARMACEUTICAL COMBINATIONS” (Novartis AG, priority 2018, published 2021)
Like-named read-outs stand apart in the source and are kept apart here.

COc1ncc(-c2nc3c(n2C(C)C)[C@H](c2ccc(Cl)cc2)N(c2cc(Cl)cn(C)c2=O)C3=O)c(OC)n1 [HDM201, (S)-5-(5-Chloro-1-methyl-2-oxo-1,2-dihydro-pyridin-3-yl)-6-(4-chloro-phenyl)-2-(2,4-dimethoxy-pyrimidin-5-yl)-1-isopropyl-5,6-dihydro-1H-pyrrolo[3,4-d]imidazol-4-one]
Decreased Appetite, Grade 3/4 (1B 150 mg, N=8): 0 n (%)
Dehydration, All Grades (1B 150 mg, N=8): 0 n (%)
Dehydration, Grade 3/4 (1B 150 mg, N=8): 0 n (%)
Diarrhoea, All Grades (1B 150 mg, N=8): 2 (25.0) n (%)
Diarrhoea, Grade 3/4 (1B 150 mg, N=8): 0 n (%)
Dry Skin, All Grades (1B 150 mg, N=8): 0 n (%)
Dry Skin, Grade 3/4 (1B 150 mg, N=8): 0 n (%)
Dysgeusia, All Grades (1B 150 mg, N=8): 0 n (%)
Dysgeusia, Grade 3/4 (1B 150 mg, N=8): 0 n (%)
Eye Pain, All Grades (1B 150 mg, N=8): 1 (12.5) n (%)
Eye Pain, Grade 3/4 (1B 150 mg, N=8): 0 n (%)
Fatigue, All Grades (1B 150 mg, N=8): 2 (25.0) n (%)
Fatigue, Grade 3/4 (1B 150 mg, N=8): 1 (12.5) n (%)
Folliculitis, All Grades (1B 150 mg, N=8): 1 (12.5) n (%)
Folliculitis, Grade 3/4 (1B 150 mg, N=8): 0 n (%)
Gamma-Glutamyltransferase Increased, All Grades (1B 150 mg, N=8): 1 (12.5) n (%)
Gamma-Glutamyltransferase Increased, Grade 3/4 (1B 150 mg, N=8): 0 n (%)
Headache, All Grades (1B 150 mg, N=8): 1 (12.5) n (%)
Headache, Grade 3/4 (1B 150 mg, N=8): 0 n (%)
Hyperkalaemia, All Grades (1B 150 mg, N=8): 0 n (%)
Hyperkalaemia, Grade 3/4 (1B 150 mg, N=8): 0 n (%)
Hypocalcaemia, All Grades (1B 150 mg, N=8): 0 n (%)
Hypocalcaemia, Grade 3/4 (1B 150 mg, N=8): 0 n (%)
Influenza Like Illness, All Grades (1B 150 mg, N=8): 1 (12.5) n (%)
Influenza Like Illness, Grade 3/4 (1B 150 mg, N=8): 0 n (%)
Lethargy, All Grades (1B 150 mg, N=8): 1 (12.5) n (%)
Lethargy, Grade 3/4 (1B 150 mg, N=8): 0 n (%)
Leukopenia, All Grades (1B 150 mg, N=8): 1 (12.5) n (%)
Leukopenia, Grade 3/4 (1B 150 mg, N=8): 1 (12.5) n (%)
Lipase Increased, All Grades (1B 150 mg, N=8): 2 (25.0) n (%)
Lipase Increased, Grade 3/4 (1B 150 mg, N=8): 2 (25.0) n (%)
Lymphopenia, All Grades (1B 150 mg, N=8): 2 (25.0) n (%)
Lymphopenia, Grade 3/4 (1B 150 mg, N=8): 1 (12.5) n (%)
Monocytosis, All Grades (1B 150 mg, N=8): 0 n (%)
Monocytosis, Grade 3/4 (1B 150 mg, N=8): 0 n (%)
Musculoskeletal Pain, All Grades (1B 150 mg, N=8): 0 n (%)
Musculoskeletal Pain, Grade 3/4 (1B 150 mg, N=8): 0 n (%)
Myalgia, All Grades (1B 150 mg, N=8): 0 n (%)
Myalgia, Grade 3/4 (1B 150 mg, N=8): 0 n (%)
Nausea, All Grades (1B 150 mg, N=8): 4 (50.0) n (%)
Nausea, Grade 3/4 (1B 150 mg, N=8): 0 n (%)
Neuralgia, All Grades (1B 150 mg, N=8): 1 (12.5) n (%)
Neuralgia, Grade 3/4 (1B 150 mg, N=8): 0 n (%)
Neutropenia, All Grades (1B 150 mg, N=8): 4 (50.0) n (%)
Neutropenia, Grade 3/4 (1B 150 mg, N=8): 3 (37.5) n (%)
Neutrophil Count Decreased, All Grades (1B 150 mg, N=8): 3 (37.5) n (%)
Neutrophil Count Decreased, Grade 3/4 (1B 150 mg, N=8): 2 (25.0) n (%)
Oedema, All Grades (1B 150 mg, N=8): 0 n (%)
Oedema, Grade 3/4 (1B 150 mg, N=8): 0 n (%)
Oral Candidiasis, All Grades (1B 150 mg, N=8): 1 (12.5) n (%)
Oral Candidiasis, Grade 3/4 (1B 150 mg, N=8): 0 n (%)
Platelet Count Decreased, All Grades (1B 150 mg, N=8): 1 (12.5) n (%)
Platelet Count Decreased, Grade 3/4 (1B 150 mg, N=8): 0 n (%)
Pruritus, All Grades (1B 150 mg, N=8): 1 (12.5) n (%)
Pruritus, Grade 3/4 (1B 150 mg, N=8): 0 n (%)
Thrombocytopenia, All Grades (1B 150 mg, N=8): 4 (50.0) n (%)
Thrombocytopenia, Grade 3/4 (1B 150 mg, N=8): 2 (25.0) n (%)
Total, All Grades (1B 150 mg, N=8): 7 (87.5) n (%)
Total, Grade 3/4 (1B 150 mg, N=8): 4 (50.0) n (%)
Vomiting, All Grades (1B 150 mg, N=8): 2 (25.0) n (%)
Vomiting, Grade 3/4 (1B 150 mg, N=8): 0 n (%)
Weight Decreased, All Grades (1B 150 mg, N=8): 0 n (%)
Weight Decreased, Grade 3/4 (1B 150 mg, N=8): 0 n (%)
White Blood Cell Count Decreased, All Grades (1B 150 mg, N=8): 1 (12.5) n (%)
White Blood Cell Count Decreased, Grade 3/4 (1B 150 mg, N=8): 0 n (%)
Abdominal Pain, All Grades (1B 200 mg, N=3): 0 n (%)
Abdominal Pain, Grade 3/4 (1B 200 mg, N=3): 0 n (%)
Alanine Aminotransferase Increased, All Grades (1B 200 mg, N=3): 0 n (%)
Alanine Aminotransferase Increased, Grade 3/4 (1B 200 mg, N=3): 0 n (%)
Alopecia, All Grades (1B 200 mg, N=3): 0 n (%)
Alopecia, Grade 3/4 (1B 200 mg, N=3): 0 n (%)
Amylase Increased, All Grades (1B 200 mg, N=3): 1 (33.3) n (%)
Amylase Increased, Grade 3/4 (1B 200 mg, N=3): 0 n (%)
Anaemia, All Grades (1B 200 mg, N=3): 1 (33.3) n (%)
Anaemia, Grade 3/4 (1B 200 mg, N=3): 0 n (%)
Asthenia, All Grades (1B 200 mg, N=3): 0 n (%)
Asthenia, Grade 3/4 (1B 200 mg, N=3): 0 n (%)
Blood Bilirubin Increased, All Grades (1B 200 mg, N=3): 0 n (%)
Blood Bilirubin Increased, Grade 3/4 (1B 200 mg, N=3): 0 n (%)
Blood Creatine Phosphokinase Increased, All Grades (1B 200 mg, N=3): 0 n (%)
Blood Creatine Phosphokinase Increased, Grade 3/4 (1B 200 mg, N=3): 0 n (%)
Blood Creatinine Increased, All Grades (1B 200 mg, N=3): 0 n (%)
Blood Creatinine Increased, Grade 3/4 (1B 200 mg, N=3): 0 n (%)
Decreased Appetite, All Grades (1B 200 mg, N=3): 0 n (%)
Decreased Appetite, Grade 3/4 (1B 200 mg, N=3): 0 n (%)
Dehydration, All Grades (1B 200 mg, N=3): 0 n (%)
Dehydration, Grade 3/4 (1B 200 mg, N=3): 0 n (%)
Diarrhoea, All Grades (1B 200 mg, N=3): 0 n (%)
Diarrhoea, Grade 3/4 (1B 200 mg, N=3): 0 n (%)
Dry Skin, All Grades (1B 200 mg, N=3): 0 n (%)
Dry Skin, Grade 3/4 (1B 200 mg, N=3): 0 n (%)
Dysgeusia, All Grades (1B 200 mg, N=3): 0 n (%)
Dysgeusia, Grade 3/4 (1B 200 mg, N=3): 0 n (%)
Eye Pain, All Grades (1B 200 mg, N=3): 0 n (%)
Eye Pain, Grade 3/4 (1B 200 mg, N=3): 0 n (%)
Fatigue, All Grades (1B 200 mg, N=3): 1 (33.3) n (%)
Fatigue, Grade 3/4 (1B 200 mg, N=3): 0 n (%)
Folliculitis, All Grades (1B 200 mg, N=3): 0 n (%)
Folliculitis, Grade 3/4 (1B 200 mg, N=3): 0 n (%)
Gamma-Glutamyltransferase Increased, All Grades (1B 200 mg, N=3): 0 n (%)
Gamma-Glutamyltransferase Increased, Grade 3/4 (1B 200 mg, N=3): 0 n (%)
Headache, All Grades (1B 200 mg, N=3): 0 n (%)
Headache, Grade 3/4 (1B 200 mg, N=3): 0 n (%)
Hyperkalaemia, All Grades (1B 200 mg, N=3): 0 n (%)
